Laboratory results taken from patent US20250213703A1, “HUMAN INTERLEUKIN 2-POLYETHYLENE GLYCOL CONJUGATE AND USE THEREOF” (Novocodex Biopharmaceuticals Co., Ltd., priority 2021, published 2025).
pKd: −log10 of the molar value.

What was measured:
[1] = biological target: IL-2Rαβγ on mouse CTLL-2 cells (mouse (CTLL-2 cells)) (UniProt P01590); experiment: cell-based or functional assay
[2] = test system: mouse colon cancer CT26.WT; experiment: Anti-tumor activity, CT26.WT homograft tumor model; assay type: in vivo; details: Balb/c mice
Experimental: (§1) A cell suspension of 2×10^5/0.1 mL/mouse CT26.WT (purchased from […], product catalog number CRL-2638) and a cell suspension of 4×10^5/0.1 mL/mouse H22 (purchased from CCTCC, product catalog number GD00091) were subcutaneously inoculated into right backs of the mice. […] During the experiment, weights and tumor volumes of the animals were measured 3 times every week, and administration modes and experimental results were shown in Table 4.

YT cells = experiment: STAT5 phosphorylation assay (YT cells); assay type: cell-based, human; details: [EC50 YT/EC50 CTLL-2 of sample]/[EC50 YT/EC50 CTLL-2 of reference] × 100%
Excerpt: In this method, two cell lines were adopted, wherein mouse CTLL-2 cells were a cell line containing IL-2Rαβγ, and human YT cells were a cell line containing IL-2Rβγ, and rhIL-2 activated the JAK-STAT signal pathway by binding with IL-2R on the cell surface. […] The lower the percentage change of EC50 ratio of YT cells/CTLL-2 cells was, the better the effect of promoting the immune function of the samples was, and on the contrary, the better the effect of inhibiting the immune function was.
The specific process was as follows: the mouse CTLL-2 cells (purchased from American Type Culture Collection) and the human YT cells were cultured in their own media (CTLL-2 cell medium: RPMI 1640+10% FBS+400 IU/mL rhIL-2, 2 mM L-glutamine and 1 mM sodium pyruvate; and YT cell medium: RPMI 1640+10% FBS+1 mm Non-Essential Amino Acids Solution (purchased from Gibco, product catalog number 11140050)) to a sufficient amount at condition of 37° C. and 5% carbon dioxide, and starved for 4 hours before detection, and then the cell density was adjusted to be 1×10^6 cells/mL for later use.

mouse liver cancer H22 = experiment: Anti-tumor activity, H22 homograft tumor model; assay type: in vivo; details: Balb/c mice
Experimental: as §1

[3] = test system: CD8^+ T cells and CD4^+ Treg cells; experiment: Immune cell population in CT26.WT tumor tissue (flow cytometry); assay type: in vivo, mouse; details: for CD8^+ T cells/CD4^+ Treg / Percentage of CD4^+ Treg in leucocytes / Percentage of CD8^+ T cells in leucocytes: 5th day, 2.0 mg/kg IV single dosage; for proportions of CD4^+ Treg cells compared with Quanqi rhIL2 / proportions of CD8^+ T cells compared with Quanqi rhIL2 / proportions of CD8^+ T/CD4^+ Treg compared with Quanqi rhIL2: in words
Experimental: A cell suspension of 2×10^5/0.1 mL/mouse CT26.WT was subcutaneously inoculated into right backs of the mice. […] On the 5th day, tumor tissue samples of various groups were collected for flow cytometry detection of changes in cell populations of CD8^+ T cells and CD4^+ Treg cells.

[4] = mouse, in vivo, iv, 1 mg/kg
Experimental: The blood sample was placed at room temperature for 15 minutes and centrifuged at 6,800 g/min for 6 minutes to obtain serum. The plasma concentration in the serum was analyzed by the following method:
(1) Coating: 50 μL of 1 μg/mL working solution of Anti-IL-2 antibody (purchased from abcam, product catalog number: ab9618) was added into each well in a high-adsorption 96-well plate, and incubated at 2° C. to 8° C. overnight. (2) Washing: the liquid in the well was discarded, and the well was washed with 1 xPBST (0.05% Tween-20) for 3 times, according to 300 μL/well. (3) Sealing: a casein sealing solution (purchased from Thermo, product catalog number 37528) was added according to 200 μL/well, and allowed to stand at room temperature for 90 minutes. (4) Washing: the liquid in the well was discarded, and the well was washed with 1 xPBST for 3 times, according to 300 μL/well. […] (6) Washing: the liquid in the well was discarded, and the well was washed with 1×PBST for 3 times, according to 300 μL/well. (7) Primary antibody: 50 μL of 0.25 μg/mL working solution of IL-2 Monoclonal Antibody (BG5) and Biotin (purchased from Invitrogen, product catalog number M600B) was added into each well, and allowed to stand at room temperature for 60 minutes. (8) Washing: the liquid in the well was discarded, and the well was washed with 1×PBST for 3 times, according to 300 μL/well. (9) Secondary antibody: Pierce™ High Sensitivity Streptavidin-HRP (purchased from Thermo, product catalog number 21130) was diluted for 4,000 times with a casein sealing solution, and 50 μL was added into each well, and allowed to stand at room temperature for 60 minutes. (10) Washing: the liquid in the well was discarded, and the well was washed with 1×PBST for 4 times, according to 300 μL/well. […] (12) Stopping and reading: 2 M sulfuric acid stop solution was added 25 minutes later, and light absorption values at 450 nm and 650 nm were read on a microplate reader (purchased from Perkin Elmer, model EnSight).

IL-2Rβγ = biological target: T1, IL-2Rβγ (Homo sapiens, UniProt P14784+P31785); details: moderate-affinity complex IL-2Rβγ; cited from earlier work
T1 sequence (P14784 27-551): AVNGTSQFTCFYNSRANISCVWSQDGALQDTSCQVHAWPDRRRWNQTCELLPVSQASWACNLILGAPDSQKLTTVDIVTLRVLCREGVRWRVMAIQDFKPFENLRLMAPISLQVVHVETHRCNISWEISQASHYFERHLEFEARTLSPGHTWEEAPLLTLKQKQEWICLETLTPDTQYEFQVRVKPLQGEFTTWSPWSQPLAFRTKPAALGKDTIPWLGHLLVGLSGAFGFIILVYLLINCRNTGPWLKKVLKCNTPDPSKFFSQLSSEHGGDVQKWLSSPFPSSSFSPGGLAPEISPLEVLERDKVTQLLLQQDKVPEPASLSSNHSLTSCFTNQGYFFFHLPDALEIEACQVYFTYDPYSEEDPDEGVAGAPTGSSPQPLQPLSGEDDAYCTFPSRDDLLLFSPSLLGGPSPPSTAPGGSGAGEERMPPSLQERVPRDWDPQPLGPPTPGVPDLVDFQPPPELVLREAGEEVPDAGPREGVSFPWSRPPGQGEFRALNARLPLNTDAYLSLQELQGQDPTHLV
T1 sequence (P31785 23-369): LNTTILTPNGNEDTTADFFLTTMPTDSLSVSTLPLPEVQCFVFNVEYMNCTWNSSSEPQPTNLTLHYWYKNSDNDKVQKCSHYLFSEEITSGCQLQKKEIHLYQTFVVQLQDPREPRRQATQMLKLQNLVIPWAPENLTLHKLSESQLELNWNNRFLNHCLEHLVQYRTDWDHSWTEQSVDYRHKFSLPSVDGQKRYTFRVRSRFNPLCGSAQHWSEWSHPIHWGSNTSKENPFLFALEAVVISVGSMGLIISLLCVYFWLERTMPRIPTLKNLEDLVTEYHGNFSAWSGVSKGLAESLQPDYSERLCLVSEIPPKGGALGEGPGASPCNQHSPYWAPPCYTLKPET

IL-2Rαβγ = biological target: T2, IL-2Rαβγ (Homo sapiens, UniProt P01589+P14784+P31785); details: high-affinity complex IL-2Rαβγ; cited from earlier work
T2 sequence (P01589 22-272): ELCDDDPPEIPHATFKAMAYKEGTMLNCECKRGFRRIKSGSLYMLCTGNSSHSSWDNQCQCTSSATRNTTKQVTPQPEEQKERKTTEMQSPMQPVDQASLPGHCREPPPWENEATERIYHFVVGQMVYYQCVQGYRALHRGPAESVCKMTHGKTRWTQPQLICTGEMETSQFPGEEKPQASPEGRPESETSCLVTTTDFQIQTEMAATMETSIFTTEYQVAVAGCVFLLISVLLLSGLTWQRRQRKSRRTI
T2 sequence (P14784 27-551): T1 sequence (P14784 27-551)
T2 sequence (P31785 23-369): T1 sequence (P31785 23-369)

IL-2Rα = biological target: T3, IL-2Rα (Homo sapiens, UniProt P01589); details: low-affinity receptor IL-2Rα subunit; cited from earlier work
T3 sequence (P01589 22-272): T2 sequence (P01589 22-272)

[5] = high dosage 5.0 mg/kg IV Q5D × 3
[6] = low dosage 0.7 mg/kg IV Q5D × 3

Chain of IL-2Rαβγ on mouse CTLL-2 cells (mouse (CTLL-2 cells)) (P01590 22-268, chain 1 of 3): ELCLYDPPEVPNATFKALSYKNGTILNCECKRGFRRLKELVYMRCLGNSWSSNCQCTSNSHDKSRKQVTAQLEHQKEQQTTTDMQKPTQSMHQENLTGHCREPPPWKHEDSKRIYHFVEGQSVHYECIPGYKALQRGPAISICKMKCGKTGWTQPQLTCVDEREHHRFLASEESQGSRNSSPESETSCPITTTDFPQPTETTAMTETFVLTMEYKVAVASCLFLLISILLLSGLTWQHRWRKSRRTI
Chain of IL-2Rαβγ on mouse CTLL-2 cells (mouse (CTLL-2 cells)) (P16297 27-539, chain 2 of 3, further chain): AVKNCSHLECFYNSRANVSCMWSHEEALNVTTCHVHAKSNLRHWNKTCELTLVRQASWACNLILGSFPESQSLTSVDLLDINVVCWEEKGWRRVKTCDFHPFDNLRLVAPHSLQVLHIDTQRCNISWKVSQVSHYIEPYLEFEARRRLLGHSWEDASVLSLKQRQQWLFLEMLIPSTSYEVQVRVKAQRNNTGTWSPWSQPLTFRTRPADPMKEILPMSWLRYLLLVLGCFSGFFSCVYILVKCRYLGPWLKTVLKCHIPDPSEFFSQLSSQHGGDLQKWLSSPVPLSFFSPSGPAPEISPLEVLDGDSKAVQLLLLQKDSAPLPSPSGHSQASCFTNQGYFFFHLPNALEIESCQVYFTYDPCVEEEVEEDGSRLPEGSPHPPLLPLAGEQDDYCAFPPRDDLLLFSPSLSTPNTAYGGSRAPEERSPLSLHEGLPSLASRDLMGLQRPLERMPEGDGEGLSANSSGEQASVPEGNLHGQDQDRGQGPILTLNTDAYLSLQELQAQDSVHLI
Chain of IL-2Rαβγ on mouse CTLL-2 cells (mouse (CTLL-2 cells)) (P34902 23-369, chain 3 of 3, further chain): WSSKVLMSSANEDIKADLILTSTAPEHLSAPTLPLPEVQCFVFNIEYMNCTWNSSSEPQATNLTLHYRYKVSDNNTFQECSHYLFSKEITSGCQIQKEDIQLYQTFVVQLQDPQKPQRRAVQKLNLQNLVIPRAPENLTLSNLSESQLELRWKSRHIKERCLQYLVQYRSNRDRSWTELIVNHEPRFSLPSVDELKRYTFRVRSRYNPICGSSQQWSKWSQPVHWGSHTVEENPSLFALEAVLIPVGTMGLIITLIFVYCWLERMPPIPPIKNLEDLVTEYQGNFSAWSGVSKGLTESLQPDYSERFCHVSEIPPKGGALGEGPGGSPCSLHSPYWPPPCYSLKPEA

reference rhIL-2 (purchased from Beijing Solarbio Science & Technology Co., Ltd., catalog number: P00020) (from UniProt P60568 21-153) (ligand)
STAT5 phosphorylation assay (CTLL-2 cells) EC50 [1]: 0.12 ng/mL

30 KD PEG-rhIL2-T41: rhIL-2 with unnatural amino acid NOPK at T41 site, coupled via oxime bond with 30 KD aminoxy PEG
Average value ± standard error of tumor weight [2, 5]: 0.32 g
TGITW [2, 5]: 88%
Average value ± standard error of tumor weight [2, 6]: 0.64 g
TGITW [2, 6]: 77%
Percentage change of EC50 ratio of YT/CTLL-2 cells of 30 KD PEG-rhIL2 sample (YT cells): 43%
Average value ± standard error of tumor weight (mouse liver cancer H22; [5]): 0.38 g
TGITW (mouse liver cancer H22; [5]): 80%
Average value ± standard error of tumor weight (mouse liver cancer H22; [6]): 0.69 g
TGITW (mouse liver cancer H22; [6]): 63%
CD8^+ T cells/CD4^+ Treg [3]: 27.7
Percentage of CD4^+ Treg in leucocytes [3]: 1.3%
Percentage of CD8^+ T cells in leucocytes [3]: 36.0%
proportions of CD4^+ Treg cells compared with Quanqi rhIL2 [3]: significantly decreased
proportions of CD8^+ T cells compared with Quanqi rhIL2 [3]: significantly increased
proportions of CD8^+ T/CD4^+ Treg compared with Quanqi rhIL2 [3]: significantly increased

30 KD PEG-rhIL2-E61: rhIL-2 with unnatural amino acid NOPK at E61 site, coupled via oxime bond with 30 KD aminoxy PEG
Percentage change of EC50 ratio of YT/CTLL-2 cells of 30 KD PEG-rhIL2 sample (YT cells): 89%

30 KD PEG-rhIL2-P65: rhIL-2 with unnatural amino acid NOPK at P65 site, coupled via oxime bond with 30 KD aminoxy PEG
Percentage change of EC50 ratio of YT/CTLL-2 cells of 30 KD PEG-rhIL2 sample (YT cells): 91%

30 KD PEG-rhIL2-Y45: rhIL-2 with unnatural amino acid NOPK at Y45 site, coupled via oxime bond with 30 KD aminoxy PEG
Average value ± standard error of tumor weight [2, 5]: 0.22 g
TGITW [2, 5]: 92%
Average value ± standard error of tumor weight [2, 6]: 0.93 g
TGITW [2, 6]: 66%
AUC0-t [4]: 168.141 µg·h/mL
MRT0-t [4]: 9.42 h
Vz [4]: 0.126 L/kg
Percentage change of EC50 ratio of YT/CTLL-2 cells of 30 KD PEG-rhIL2 sample (YT cells): 6%
Average value ± standard error of tumor weight (mouse liver cancer H22; [5]): 0.4 g
TGITW (mouse liver cancer H22; [5]): 79%
Average value ± standard error of tumor weight (mouse liver cancer H22; [6]): 0.82 g
TGITW (mouse liver cancer H22; [6]): 57%
CD8^+ T cells/CD4^+ Treg [3]: 23.2
Percentage of CD4^+ Treg in leucocytes [3]: 1.3%
Percentage of CD8^+ T cells in leucocytes [3]: 30.1%
proportions of CD4^+ Treg cells compared with Quanqi rhIL2 [3]: significantly decreased
proportions of CD8^+ T cells compared with Quanqi rhIL2 [3]: significantly increased
proportions of CD8^+ T/CD4^+ Treg compared with Quanqi rhIL2 [3]: significantly increased

IL-2: mature human IL-2 with 133 amino acids, background description
pKd (IL-2Rβγ): 9.00
pKd (IL-2Rαβγ): 11.00
pKd (IL-2Rα): 8.00

30 KD PEG-rhIL2-K35: rhIL-2 with unnatural amino acid NOPK at K35 site, coupled via oxime bond with 30 KD aminoxy PEG
Percentage change of EC50 ratio of YT/CTLL-2 cells of 30 KD PEG-rhIL2 sample (YT cells): 53%
